Here are results for one compound from US8420658B2, “Use of Carboxyamidotriazole (CAI) orotate in macular degeneration” (Tactical Therapeutics Inc, priority 2006, dated 2013).

Assay [1] has as its system Dunning rat model for prostate cancer. To be noted: orotate salt of CAI compared with CAI; from U.S. Pat. Nos. 5,861,406 and 5,912,346; cited from earlier work.
In assay [2] the test system is Human umbilical vein endothelial cells (HUVEC). In words: Proliferation assay for endothelial cells (HUVEC), cell count after 3 days of treatment. To be noted: HUVEC treated with three different concentrations for 3 days; triplicate; FIG. 1. The assay is classed as cell-based. How it is done: FIG. 1 illustrates the results of the proliferation assay for endothelial cells (HUVEC).
Human umbilical vein endothelial cells (HUVEC) were treated with three different concentrations of Carboxyamidotriazole or 5 amino 1,2,3-triazole orotate (CAI Orotate) for 3 days. The cell number of each culture under different treatment conditions was counted. The assays were done in triplicate and the data are expressed as mean +/− standard deviation.

In the case of `NC(=O)c1nnn(Cc2cc(Cl)c(C(=O)c3ccc(Cl)cc3)c(Cl)c2)c1N.O=C(O)c1cc(=O)[nH]c(=O)[nH]1` [CAI Orotate, Carboxyamidotriazole or 5 amino 1,2,3-triazole orotate], in assay [1], the “Antitumor effect compared with CAI” value is on record as “improved antitumor effect”. In addition, the “Inhibition of angiogenesis (HUVEC cell number)” value in assay [2] was “inhibited angiogenesis in a dose related manner”.
